Assays:
HLA-A*0201 = molecular target: T1, HLA-A*0201 (Homo sapiens, UniProt P04439, D140Y/D185E/D98H/E176V/E277Q/G131W/G231S/I119V/I121R/I166T/I218V/L300P/L318F/N151K/N90K/P208A/P217A/Q86G/Q94H/R138H/R169H/T345S); assay: Measurement of peptide relative affinity to HLA-A*0201 on T2 cells; type: binding; details: Relative Affinity determination
T1 construct: Tap−/− cells expressing the studied HLA-class I molecule; endogenous in cells; host or cells: T2 cells (Tap-/-, HLA-A*0201)
Procedure: Measurement of Peptide Relative Affinity to HLA class I. Tap−/− cells expressing the studied HLA-class I molecule (3×10^5 cells/mL) were incubated with various concentrations of peptides ranging from 100 μM to 0.1 μM in serum-free RPMI 1640 medium supplemented with 100 ng/ml of human β-2m at 37° C. for 16 hours. Cells were then washed twice and stained with the specific anti-class I mAb followed by FITC conjugated goat anti mouse Ig mAb to quantify the expression of HLA-A*0201. For each peptide concentration, the HLA-specific staining was calculated as the % of the staining obtained with 100 μM of the reference peptide. The relative affinity (RA) is determined as: RA=(Concentration of each peptide that induces 20% of HLA expression/Concentration of the reference peptide that induces 20% of HLA expression). The lower the RA-value, the stronger is the peptide binding to HLA. The mean RA value for each peptide is determined from at least three independent experiments. […]
The affinity of each peptide was assayed experimentally by determination of the Relative Affinity: the necessary peptide dose to stabilise a reference quantity of HLA-A*0201 molecules at the surface of T2 cells; and the stability of each peptide was assayed by determination of the half-life of the peptide/HLA-A*0201 molecule complex (DC50: dissociation complex 50).

[1] = tested on: murine CTL lines mCTL134, mCTL380, mCTL391, mCTL393; assay: Murine CTL avidity for peptide, 51Cr release cytotoxic assay; type: cell-based, HHD mice; details: peptide concentration, effector:target ratio 40:1, each CTL line with its respective Hsp70 peptide, read-out: avidity (50% of maximal lysis)
Procedure: The four graphs indicate the cell lysis by CTL lines obtained after stimulation with the following peptides, respectively: HSP134 (line mCTL134), HSP380 (line mCTL380), HSP391 (line mCTL391) and HSP393 (line mCTL393). The avidity of the CTLs for their cellular target is determined with a ^51Cr release assay with an effector:target ratio of 40:1. The percentage of lysis of target cells is expressed on the Y axis, as a function of peptide concentration in the medium, which is represented on the X axis. In each graph, the black curve with diamond-shaped points represent cell lysis in presence of HSP peptides, whereas the grey curve with square points represent cell lysis in presence of cognate HSC peptides.
For measuring the avidity of mCTL134 for cells presenting HSP134, the peptide concentration ranges from […]. For mCTL380, mCTL391 and mCTL393, the respective peptide concentration ranges from 1 pM to 1 μM. The different points on each curve correspond, from left to right, to peptide concentrations of 1 pM, 10 pM, 100 pM, 1 nM, 10 nM, 100 nM and 1 μM.
Generation of CTL in HLA-transgenic mice. […]
Cytotoxic assay. […] After incubation, 100 μL of supernatant was collected and radioactivity was measured in a γ-counter. Percentage of specific lysis was determined as: Lysis=(Experimental Release−Spontaneous Release)/(Maximal Release−Spontaneous Release)×100. […]

In the case of YLGYPVTNAV [HSP 134(10)], the “affinity for HLA-A*0201 (in words)” value (HLA-A*0201) is reported as “strong affinity”.

In the case of LMGDKSENV [HSP 380], the EC50 [1] is reported as about 10 nM.
